Laboratory results from patent US12534706B2, “Method for maturation of retinal tissue containing continuous epithelium” (RIKEN, priority 2017, dated 2026).

Assays:
[1] = system: cell aggregate containing a retinal tissue (CRX::Venus knock-in human ES cells); assay: Continuous epithelium rate of retinal tissue after adding a substance to the medium of culture method [B] (day 38 to 56); assay type: cell-based; conditions: day 38 to day 54, 55 or 56
Protocol: A cell aggregate containing a retinal tissue was prepared by the method described in “Kuwahara et al. Nat Commun 2015, 19(6), 6286” after modification in part. That is, the aforementioned cultured ES cells were individually dispersed using TrypLE Express (Invitrogen), and the individually dispersed human ES cells were suspended in 100 μL of a serum-free medium in a cell non-adhesive 96 well culture plate (SUMILON spheroid plate, SUMITOMO BAKELITE CO., LTD.) at 9×10^3 cells per well to allow rapid formation of aggregates, after which they were cultured at 37° C., 5% CO2. As the serum-free medium therefor, a serum-free medium obtained by adding 10% KSR, 450 μM 1-monothioglycerol, 1× Chemically defined lipid concentrate, 5 mg/mL BSA, 20 μM Y27632 to a 1:1 mixture of F-12 medium and IMDM medium was used. At 6 days after the start of suspension culture, BMP4 at a final concentration of 1.5 nM was added and suspension culture was continued. A half amount of the culture medium in the well was exchanged with the above-mentioned medium not supplemented with a BMP signal transduction pathway agonist every 3 or 4 days. A cell aggregate containing a retinal tissue at day 18 from the start of suspension culture was cultured in suspension in a serum-free medium containing 3 μM CHIR99021 and 5 μM SU5402 (DMEM/F12 medium supplemented with 1% N2 supplement) for 4 days, namely, until day 22 from the start of suspension culture. Thereafter, suspension culture was continued using the serum-containing medium. The serum-containing medium used then and the culture method are shown in the following [A] to [C]. The suspension culture of the cell aggregate containing the retinal tissue was continued until it was appropriately used for analysis and the like. • [A] From day 22 to day 56 from the start of suspension culture, suspension culture was performed using a medium obtained by adding 10% bovine calf serum, 1% N2 supplement, and 100 μM taurine to the DMEM/F12 medium. • [B] From day 22 to day 38 from the start of suspension culture, suspension culture was performed using a medium obtained by adding 10% bovine calf serum, 1% N2 supplement, and 100 μM taurine to the DMEM/F12 medium; and from day 38 to day 56 from the start of suspension culture, suspension culture was performed using a 1:3 mixed medium of a medium obtained by adding 10% bovine calf serum, 1% N2 supplement, and 100 μM taurine to the DMEM/F12 medium and a medium obtained by adding 10% bovine calf serum, 2% B27 supplement, and 100 μM taurine to the Neurobasal medium. • [C] From day 22 to day 56 from the start of suspension culture, suspension culture was performed using a medium obtained by adding 10% bovine calf serum, 2% B27 supplement, and 100 μM taurine to the Neurobasal medium (manufactured by Thermo Scientific, 21103049).
Thus, among the substances contained in the medium used in the culture method [B] from day 38 to day 56 from the start of suspension culture in the culturing method [B], a substance that may greatly affect cell differentiation, cell protection, and cell death of retinal tissues was added to the medium used in the culture method [A], and whether it contributes to the improvement of continuous epithelium rate was studied. […]

[2] = system: cell aggregate containing a retinal tissue (CRX::Venus knock-in human ES cells); assay: Continuous epithelium rate of retinal tissue after adding a substance to the medium of culture method [A]; assay type: cell-based; conditions: day 38 to day 54, 55 or 56
Protocol: A cell aggregate containing a retinal tissue was prepared by the method described in “Kuwahara et al. Nat Commun 2015, 19(6), 6286” after modification in part. That is, the aforementioned cultured ES cells were individually dispersed using TrypLE Express (Invitrogen), and the individually dispersed human ES cells were suspended in 100 μL of a serum-free medium in a cell non-adhesive 96 well culture plate (SUMILON spheroid plate, SUMITOMO BAKELITE CO., LTD.) at 9×10^3 cells per well to allow rapid formation of aggregates, after which they were cultured at 37° C., 5% CO2. As the serum-free medium therefor, a serum-free medium obtained by adding 10% KSR, 450 μM 1-monothioglycerol, 1× Chemically defined lipid concentrate, 5 mg/mL BSA, 20 μM Y27632 to a 1:1 mixture of F-12 medium and IMDM medium was used. At 6 days after the start of suspension culture, BMP4 at a final concentration of 1.5 nM was added and suspension culture was continued. A half amount of the culture medium in the well was exchanged with the above-mentioned medium not supplemented with a BMP signal transduction pathway agonist every 3 or 4 days. A cell aggregate containing a retinal tissue at day 18 from the start of suspension culture was cultured in suspension in a serum-free medium containing 3 μM CHIR99021 and 5 μM SU5402 (DMEM/F12 medium supplemented with 1% N2 supplement) for 4 days, namely, until day 22 from the start of suspension culture. Thereafter, suspension culture was continued using the serum-containing medium. The serum-containing medium used then and the culture method are shown in the following [A] to [C]. The suspension culture of the cell aggregate containing the retinal tissue was continued until it was appropriately used for analysis and the like. • [A] From day 22 to day 56 from the start of suspension culture, suspension culture was performed using a medium obtained by adding 10% bovine calf serum, 1% N2 supplement, and 100 μM taurine to the DMEM/F12 medium. • [B] From day 22 to day 38 from the start of suspension culture, suspension culture was performed using a medium obtained by adding 10% bovine calf serum, 1% N2 supplement, and 100 μM taurine to the DMEM/F12 medium; and from day 38 to day 56 from the start of suspension culture, suspension culture was performed using a 1:3 mixed medium of a medium obtained by adding 10% bovine calf serum, 1% N2 supplement, and 100 μM taurine to the DMEM/F12 medium and a medium obtained by adding 10% bovine calf serum, 2% B27 supplement, and 100 μM taurine to the Neurobasal medium. • [C] […]

Compound: N[C@@H](CC(=O)O)C(=O)O [L-aspartic acid]
- continuous epithelium rate ([1]; L-aspartic acid alone, final concentration 50 μM in culture method [B] medium): decreased the continuous epithelium rate slightly, but the difference was not significant

Compound: N[C@@H](CCC(=O)O)C(=O)O [L-glutamic acid]
- continuous epithelium rate ([1]; L-glutamic acid alone, final concentration 50 μM in culture method [B] medium): contributed to the decrease

Compound: C[C@]12C[C@H](O)[C@H]3[C@@H](CCC4=CC(=O)CC[C@@]43C)[C@@H]1CC[C@@H]2C(=O)CO [corticosterone, reference compound]
- continuous epithelium rate ([2]; final concentration 100 nM added to culture method [A] medium, vs nothing added (corticosterone)): increased

Compound: N[C@@H](CS)C(=O)O [cysteine]
- continuous epithelium rate ([2]; final concentration 0.22 mM in culture method [A] medium, vs nothing added): decreased

Compound: O=c1[nH]cnc2nc[nH]c12 [hypoxanthine]
- continuous epithelium rate ([1]; final concentration 15 μM in culture method [B] medium): contributed to a decrease

Compound: CSCC[C@H](N)C(=O)O [methionine]
- continuous epithelium rate ([2]; final concentration 26.81 mg/L in culture method [A] medium, vs nothing added): increased

Compound: CC(=O)[C@H]1CC[C@H]2[C@@H]3CCC4=CC(=O)CC[C@]4(C)[C@H]3CC[C@]12C [progesterone, reference compound]
- continuous epithelium rate ([2]; final concentration 100 nM added to culture method [A] medium, vs nothing added (progesterone)): similarly decreased

Compound: Cc1cn([C@H]2C[C@H](O)[C@@H](CO)O2)c(=O)[nH]c1=O [thymidine]
- continuous epithelium rate ([1]; final concentration 1.5 μM in culture method [B] medium): contributed to a decrease

Compound: vitamin B12
- continuous epithelium rate ([1]; final concentration 0.68 mg/L in culture method [B] medium): contributed to a decrease
